{"source": "ChEMBL document CHEMBL5608246", "about": "“Membrane-Targeting Amphiphilic Honokiol Derivatives Containing an Oxazole Moiety as Potential Antibacterials against Methicillin-Resistant Staphylococcus aureus” (J Med Chem, 2024)", "key": {"Escherichia coli": {"tested_on": "Escherichia coli", "assay": "Antibacterial activity against Escherichia coli ATCC 25922 incubated for 16 to 18 hrs by broth dilution method", "assay_type": "functional", "conditions": "time 16-18 hrs"}, "[1]": {"assay": "Toxicity in Kunming mouse assessed as change in mean corpuscular volume at 20 mg/kg, sc measured after 24 hrs", "assay_type": "organism-based", "conditions": "in vivo"}, "Staphylococcus aureus [2]": {"tested_on": "Staphylococcus aureus", "assay": "Antibacterial activity against methicillin resistant Staphylococcus aureus 20 incubated for 16 to 18 hrs in presence of 2 to 64 ug/ml cardiolipin by checkerboard broth dilution method", "assay_type": "functional, organism-based", "conditions": "time 16-18 hrs"}, "Staphylococcus aureus [3]": {"tested_on": "Staphylococcus aureus", "assay": "Disruption of redox process in methicillin resistant Staphylococcus aureus N315 at 4 ug/ml incubated for 4 hrs by RNA-sequencing analysis", "assay_type": "functional, organism-based", "conditions": "dose 4.0 µg/ml"}, "Staphylococcus aureus [4]": {"tested_on": "Staphylococcus aureus", "assay": "Upregulation of cwrA gene expression in methicillin resistant Staphylococcus aureus N315 at 4 ug/ml incubated for 4 hrs by RNA-sequencing analysis", "assay_type": "functional", "conditions": "dose 4.0 µg/ml"}, "Cell membrane [5]": {"tested_on": "Cell membrane", "assay": "Induction of membrane disruption in methicillin resistant Staphylococcus aureus 20 at 16 ug/ml incubated for 4 hrs by DAPI/PI staining based laser confocal microscopic analysis", "conditions": "dose 16.0 µg/ml"}, "Staphylococcus aureus [6]": {"tested_on": "Staphylococcus aureus", "assay": "Antibacterial activity against methicillin resistant Staphylococcus aureus 20 infected in Kunming mouse skin abscess model assessed as reduction in inflammatory cell infiltration in dermal layer at 10 mg/kg, sc measured after 2 hrs", "assay_type": "functional, organism-based"}, "[7]": {"assay": "Toxicity in Kunming mouse assessed as skin redness at 40 to 80 mg/kg, sc measured after 24 hrs", "assay_type": "organism-based", "conditions": "in vivo, dose 40-80 mg/kg"}, "Cell membrane [8]": {"tested_on": "Cell membrane", "assay": "Induction of membrane disruption in methicillin resistant Staphylococcus aureus 20 assessed as DNA leakage incubated for 4 hrs by microspectrophotometer analysis", "assay_type": "cell membranes", "conditions": "dose 2-16 µg/ml"}}, "note": "Active and inactive are the calls of the source. The rule behind the calls is not given here."}
{"smiles": "C=CCc1cc(-c2ccc(OCCC[N+](C)(C)CC(=O)NCCCC)c(CC=C)c2)c2oc(-c3c(Cl)cccc3Cl)nc2c1.[Br-]", "values": [{"measurement": "MIC", "setting": "Escherichia coli", "result": 128, "unit": "µg/mL"}, {"measurement": "Activity", "setting": "[1]", "result": "Non-Toxic"}, {"measurement": "Activity", "setting": "Staphylococcus aureus [2]", "result": "inactive"}, {"measurement": "Activity", "setting": "Staphylococcus aureus [3]", "result": "Active"}, {"measurement": "Activity", "setting": "Staphylococcus aureus [4]", "result": "Active"}, {"measurement": "Activity", "setting": "Cell membrane [5]", "result": "Active"}, {"measurement": "Activity", "setting": "Staphylococcus aureus [6]", "result": "Active"}, {"measurement": "Activity", "setting": "[7]", "result": "Toxic"}, {"measurement": "Activity", "setting": "Cell membrane [8]", "result": "Dose-Dependent Effect"}]}
